Test results: PubChem BioAssay (NCI)
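Values below derive from 48-hour exposures of cells grown in 96-well plates, with endpoints linearly interpolated between the two concentrations bracketing the appropriate inhibition level. GI50 marks 50% less growth. At the TGI there is no net growth.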

Legend:
Assay in all cases: inhibition of tumour cell growth, NCI panel, 48 h
HT29 colon = system: HT29 colon
T-47D breast = system: T-47D breast
HCT-15 colon = system: HCT-15 colon
BT-549 breast = system: BT-549 breast
KM12 colon = system: KM12 colon
SNB-19 CNS = system: SNB-19 CNS
SK-MEL-2 melanoma = system: SK-MEL-2 melanoma
OVCAR-3 ovarian = system: OVCAR-3 ovarian
HCT-116 colon = system: HCT-116 colon
HCC-2998 colon = system: HCC-2998 colon

## Cn1c2c(c3c(=O)[nH]ncc31)Cc1ccccc1-2
HT29 colon
  TGI: > 100 µM
T-47D breast
  TGI: 78.2 µM
HCT-15 colon
  TGI: > 100 µM
BT-549 breast
  TGI: 60.5 µM
KM12 colon
  TGI: 66.8 µM
SNB-19 CNS
  TGI: > 100 µM
SK-MEL-2 melanoma
  TGI: 41.8 µM
OVCAR-3 ovarian
  TGI: 41.2 µM
HCT-116 colon
  TGI: 60.8 µM

## NC1CCC2(O)c3ccccc3C2C1 (centres undefined)
HT29 colon
  TGI: > 100 µM
HCT-15 colon
  TGI: > 100 µM
KM12 colon
  TGI: > 100 µM
SNB-19 CNS
  TGI: > 100 µM
SK-MEL-2 melanoma
  TGI: > 100 µM
HCT-116 colon
  TGI: > 100 µM

## Cc1ccc(S(=O)(=O)NC(=O)Nc2ccc(C(=O)O)cc2)cc1
HT29 colon
  TGI: > 100 µM
T-47D breast
  TGI: > 100 µM
HCT-15 colon
  TGI: > 100 µM
BT-549 breast
  TGI: > 100 µM
KM12 colon
  TGI: > 100 µM
SNB-19 CNS
  TGI: > 100 µM
SK-MEL-2 melanoma
  TGI: > 100 µM
HCT-116 colon
  TGI: > 100 µM

## O=c1[nH]ncc2[nH]c3c(c12)CCc1ccccc1-3
HT29 colon
  TGI: > 100 µM
T-47D breast
  TGI: 98.9 µM
HCT-15 colon
  TGI: > 100 µM
BT-549 breast
  TGI: > 100 µM
KM12 colon
  TGI: > 100 µM
SNB-19 CNS
  TGI: > 100 µM
SK-MEL-2 melanoma
  TGI: 57.7 µM
OVCAR-3 ovarian
  TGI: > 100 µM
HCT-116 colon
  TGI: > 100 µM

## COC(=O)[C@H](C)NC(=O)[C@H](NS(=O)(=O)c1nc2ccccc2s1)c1ccccc1
HT29 colon
  TGI: > 100 µM
T-47D breast
  TGI: 32.4 µM
HCC-2998 colon
  TGI: 44.5 µM
HCT-15 colon
  TGI: > 100 µM
BT-549 breast
  TGI: > 100 µM
KM12 colon
  TGI: 30.5 µM
SNB-19 CNS
  TGI: 73.3 µM
SK-MEL-2 melanoma
  TGI: 25.2 µM
HCT-116 colon
  TGI: > 100 µM

## CC(=O)CCC1(C(=O)OCC(C)C)CCCC1=O (centres undefined)
HT29 colon
  TGI: > 100 µM
T-47D breast
  TGI: > 100 µM
HCT-15 colon
  TGI: > 100 µM
BT-549 breast
  TGI: > 100 µM
KM12 colon
  TGI: > 100 µM
SNB-19 CNS
  TGI: > 100 µM
SK-MEL-2 melanoma
  TGI: > 100 µM
OVCAR-3 ovarian
  TGI: > 100 µM
HCT-116 colon
  TGI: > 100 µM

## CN1C(c2ccccc2)CC(O)CC1c1ccccc1 (centres undefined)
HT29 colon
  TGI: > 100 µM
HCT-15 colon
  TGI: > 100 µM
KM12 colon
  TGI: > 100 µM
SNB-19 CNS
  TGI: > 100 µM
SK-MEL-2 melanoma
  TGI: > 100 µM
OVCAR-3 ovarian
  TGI: > 100 µM
HCT-116 colon
  TGI: > 100 µM

## O=C(OCCN=c1c2ccccc2ccc2ccccc12)c1cc([N+](=O)[O-])cc([N+](=O)[O-])c1
HT29 colon
  TGI: > 100 µM
T-47D breast
  TGI: > 100 µM
HCT-15 colon
  TGI: > 100 µM
BT-549 breast
  TGI: > 100 µM
KM12 colon
  TGI: > 100 µM
SNB-19 CNS
  TGI: > 100 µM
SK-MEL-2 melanoma
  TGI: > 100 µM
OVCAR-3 ovarian
  TGI: > 100 µM
HCT-116 colon
  TGI: > 100 µM

## COC(=O)c1c(O)ccc2c1c1c(n2Cc2ccc(OC)cc2)C(=O)c2ccccc2C1
HT29 colon
  TGI: 47.4 µM
HCT-15 colon
  TGI: > 100 µM
BT-549 breast
  TGI: > 100 µM
KM12 colon
  TGI: > 100 µM
SNB-19 CNS
  TGI: > 100 µM
SK-MEL-2 melanoma
  TGI: > 100 µM
OVCAR-3 ovarian
  TGI: > 100 µM
HCT-116 colon
  TGI: > 100 µM

## C/C(=N/NC(=S)Nc1ccc(C)cc1)c1ccccn1
HT29 colon
  TGI: 19.4 µM
HCC-2998 colon
  TGI: 18.6 µM
HCT-15 colon
  TGI: 17.6 µM
BT-549 breast
  TGI: 18.7 µM
KM12 colon
  TGI: 15.5 µM
SNB-19 CNS
  TGI: 20.6 µM
SK-MEL-2 melanoma
  TGI: 13.9 µM
OVCAR-3 ovarian
  TGI: 12.2 µM
HCT-116 colon
  TGI: 13 µM

## COc1c(OC2OC(CO)C(O)C(O)C2O)cc2c(c1OC)-c1ccc(OC)c(=O)cc1C(NC(C)=O)CC2 (centres undefined)
HT29 colon
  TGI: > 100 µM
HCC-2998 colon
  TGI: > 100 µM
HCT-15 colon
  TGI: > 100 µM
KM12 colon
  TGI: > 100 µM
SNB-19 CNS
  TGI: > 100 µM
SK-MEL-2 melanoma
  TGI: > 100 µM
OVCAR-3 ovarian
  TGI: > 100 µM
HCT-116 colon
  TGI: > 100 µM

## O=C(O)C1CCC(=O)N1C(=O)COc1cc(Cl)c(Cl)cc1Cl (centres undefined)
HT29 colon
  TGI: > 100 µM
HCT-15 colon
  TGI: > 100 µM
KM12 colon
  TGI: > 100 µM
SNB-19 CNS
  TGI: > 100 µM
OVCAR-3 ovarian
  TGI: > 100 µM
HCT-116 colon
  TGI: > 100 µM

## CCCCCCCCCCCCOCC(COP(=O)(O)OCCN=[N+]=[N-])OC(=O)CCCCCCCCCCC (centres undefined)
HT29 colon
  TGI: > 100 µM
T-47D breast
  TGI: > 100 µM
HCC-2998 colon
  TGI: > 100 µM
HCT-15 colon
  TGI: > 100 µM
KM12 colon
  TGI: > 100 µM
SNB-19 CNS
  TGI: > 100 µM
SK-MEL-2 melanoma
  TGI: > 100 µM
OVCAR-3 ovarian
  TGI: > 100 µM
HCT-116 colon
  TGI: > 100 µM

## [C-]#[O+].[Cl][Sn]([Cl])[Cl].[Cl][Sn]([Cl])[Cl].[Pt].c1cnc2c(c1)ccc1cccnc12
HT29 colon
  TGI: > 100 µM
HCC-2998 colon
  TGI: 13.1 µM
HCT-15 colon
  TGI: > 44 µM
KM12 colon
  TGI: > 100 µM
SNB-19 CNS
  TGI: > 27.1 µM
SK-MEL-2 melanoma
  TGI: 18.6 µM
OVCAR-3 ovarian
  TGI: > 69.8 µM
HCT-116 colon
  TGI: > 24.6 µM

## Cc1cccc2c1nc1n2C(=O)c2ccccc2-1
HT29 colon
  TGI: > 100 µM
HCC-2998 colon
  TGI: > 100 µM
HCT-15 colon
  TGI: > 100 µM
BT-549 breast
  TGI: > 100 µM
KM12 colon
  TGI: > 100 µM
SNB-19 CNS
  TGI: > 100 µM
SK-MEL-2 melanoma
  TGI: > 100 µM
OVCAR-3 ovarian
  TGI: > 100 µM
HCT-116 colon
  TGI: > 100 µM

## O=C(Nc1ccc(-n2cc(-c3ccncc3)c(-c3ccc(O)c(Cl)c3)n2)cc1)Nc1cc(C(F)(F)F)cc(C(F)(F)F)c1
HT29 colon
  GI50: 8.94 µM
  TGI: 22.7 µM
T-47D breast
  GI50: 3.28 µM
  TGI: 10.7 µM
HCC-2998 colon
  GI50: 5.03 µM
  TGI: 22.1 µM
HCT-15 colon
  GI50: 3.36 µM
  TGI: 12.6 µM
KM12 colon
  GI50: 3.3 µM
  TGI: 11.7 µM
SNB-19 CNS
  GI50: 4.45 µM
  TGI: 16.5 µM
SK-MEL-2 melanoma
  GI50: 2200 nM
  TGI: 4.98 µM
OVCAR-3 ovarian
  GI50: 2730 nM
  TGI: 6.76 µM
HCT-116 colon
  GI50: 3.78 µM
  TGI: 13.7 µM

## BrC1(c2ccccc2)C[n+]2c(-c3ccccc3)cc(-c3ccccc3)cc2-c2ccccc21 (centres undefined)
HT29 colon
  TGI: 3.46 µM
HCC-2998 colon
  TGI: 0.742 µM
HCT-15 colon
  TGI: 12 µM
BT-549 breast
  TGI: 1.85 µM
KM12 colon
  TGI: 1.34 µM
SNB-19 CNS
  TGI: 17.5 µM
SK-MEL-2 melanoma
  TGI: 1.08 µM
OVCAR-3 ovarian
  TGI: 0.466 µM
HCT-116 colon
  TGI: 8.32 µM

## CC(C)(C)C(=O)c1c(O)c2ccccc2c2ccccc2c1=O
HT29 colon
  TGI: > 100 µM
T-47D breast
  TGI: > 100 µM
HCT-15 colon
  TGI: > 100 µM
BT-549 breast
  TGI: 91.6 µM
KM12 colon
  TGI: > 100 µM
SNB-19 CNS
  TGI: > 100 µM
SK-MEL-2 melanoma
  TGI: > 100 µM
OVCAR-3 ovarian
  TGI: > 100 µM
HCT-116 colon
  TGI: > 100 µM

## O=C(O)CCCc1ccc2c(c1)C(C(=O)O)CC2 (centres undefined)
HT29 colon
  TGI: > 100 µM
T-47D breast
  TGI: > 100 µM
HCC-2998 colon
  TGI: > 100 µM
HCT-15 colon
  TGI: > 100 µM
BT-549 breast
  TGI: > 100 µM
KM12 colon
  TGI: > 100 µM
SNB-19 CNS
  TGI: > 100 µM
SK-MEL-2 melanoma
  TGI: > 100 µM
HCT-116 colon
  TGI: > 100 µM

## CC1CC(c2ccccc2)=Nc2ccccc2S1 (centres undefined)
HT29 colon
  TGI: > 100 µM
HCC-2998 colon
  TGI: > 100 µM
HCT-15 colon
  TGI: > 100 µM
KM12 colon
  TGI: > 100 µM
SNB-19 CNS
  TGI: > 100 µM
SK-MEL-2 melanoma
  TGI: > 100 µM
HCT-116 colon
  TGI: > 100 µM

## COc1cc(C2c3cc4c(cc3[C@@H](Nc3ccc(F)cc3)C3COC[C@H]23)OCO4)cc(OC)c1O (some centres undefined)
HT29 colon
  TGI: 8.82 µM
T-47D breast
  TGI: > 25 µM
HCC-2998 colon
  TGI: > 25 µM
HCT-15 colon
  TGI: 18.9 µM
KM12 colon
  TGI: > 25 µM
SNB-19 CNS
  TGI: 16.2 µM
HCT-116 colon
  TGI: 7.9 µM

## CCCCCCCCCCCC1=C(O)C(=O)C(CC2=C(O)C(=O)C(CCCCCCCCCCC)=C(O)C2=O)=C(O)C1=O
HT29 colon
  TGI: > 100 µM
T-47D breast
  TGI: > 100 µM
HCC-2998 colon
  TGI: > 100 µM
HCT-15 colon
  TGI: > 100 µM
BT-549 breast
  TGI: > 100 µM
KM12 colon
  TGI: > 100 µM
SNB-19 CNS
  TGI: 73.3 µM
SK-MEL-2 melanoma
  TGI: > 100 µM
HCT-116 colon
  TGI: > 100 µM

## Cc1ccc(S(=O)(=O)N/N=c2/sc3ccccc3n2C)cc1
HT29 colon
  TGI: > 100 µM
T-47D breast
  TGI: > 100 µM
HCC-2998 colon
  TGI: > 100 µM
HCT-15 colon
  TGI: > 100 µM
KM12 colon
  TGI: > 100 µM
SNB-19 CNS
  TGI: > 100 µM
SK-MEL-2 melanoma
  TGI: > 100 µM
HCT-116 colon
  TGI: > 100 µM
